Source: ChEMBL document CHEMBL3525920, “CYP4F enzymes are responsible for the elimination of fingolimod (FTY720), a novel treatment of relapsing multiple sclerosis” (Drug Metab Dispos, 2011)

How the values were obtained:
Cytochrome P450 2C19 = Cytochrome P450 2C19 (Homo sapiens, UniProt P33261); assay: Activity at CYP2C19 in human liver microsomes isolated from donors assessed as metabolite formation after 24 mins by HPLC-RA analysis; format: ADME; conditions: 0.4 h
[1] = Activity at CYP4F in human liver microsomes assessed as metabolite formation after 15 mins measured per mg protein by Eadie-Hofstee plot analysis; format: ADME; conditions: 0.25 h
Cytochrome P450 3A7 = Cytochrome P450 3A7 (Homo sapiens, UniProt P24462); assay: Activity at human recombinant CYP3A7 expressed in baculovirus-infected BTI-TN-5B1-4 insect cell microsomes assessed as metabolite formation at 5 to 100 uM after 30 mins by HPLC-RA analysis; format: ADME; conditions: bti-tn-5b1-4, 0.5 h
Cytochrome P450 2C8 = Cytochrome P450 2C8 (Homo sapiens, UniProt P10632); assay: Activity at human recombinant CYP2C8 expressed in baculovirus-infected BTI-TN-5B1-4 insect cell microsomes assessed as metabolite formation at 5 to 100 uM after 30 mins by HPLC-RA analysis; format: ADME; conditions: bti-tn-5b1-4, 0.5 h
Chain of Cytochrome P450 2C8 (P10632 whole entry): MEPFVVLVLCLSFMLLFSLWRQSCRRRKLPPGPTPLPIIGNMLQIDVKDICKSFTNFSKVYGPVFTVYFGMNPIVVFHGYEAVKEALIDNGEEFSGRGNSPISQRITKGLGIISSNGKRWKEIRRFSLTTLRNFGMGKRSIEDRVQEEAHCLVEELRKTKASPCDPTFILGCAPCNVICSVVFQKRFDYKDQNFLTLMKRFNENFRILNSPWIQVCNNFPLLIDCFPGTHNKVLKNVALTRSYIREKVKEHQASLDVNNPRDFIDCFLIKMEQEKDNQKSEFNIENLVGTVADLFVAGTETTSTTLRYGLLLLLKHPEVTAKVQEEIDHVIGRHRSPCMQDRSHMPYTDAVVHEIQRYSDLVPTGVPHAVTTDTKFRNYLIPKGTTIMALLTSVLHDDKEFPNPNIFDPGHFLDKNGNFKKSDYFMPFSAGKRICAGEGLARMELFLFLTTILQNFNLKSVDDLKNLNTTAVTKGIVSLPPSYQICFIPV

Cytochrome P450 2C9 [2] = biological target: T1, Cytochrome P450 2C9 (Homo sapiens, UniProt P11712); assay: Activity at human recombinant CYP2C9 expressed in baculovirus-infected BTI-TN-5B1-4 insect cell microsomes assessed as metabolite formation at 5 to 100 uM after 30 mins by HPLC-RA analysis; format: ADME; conditions: bti-tn-5b1-4, 0.5 h
T1 sequence (P11712 whole entry): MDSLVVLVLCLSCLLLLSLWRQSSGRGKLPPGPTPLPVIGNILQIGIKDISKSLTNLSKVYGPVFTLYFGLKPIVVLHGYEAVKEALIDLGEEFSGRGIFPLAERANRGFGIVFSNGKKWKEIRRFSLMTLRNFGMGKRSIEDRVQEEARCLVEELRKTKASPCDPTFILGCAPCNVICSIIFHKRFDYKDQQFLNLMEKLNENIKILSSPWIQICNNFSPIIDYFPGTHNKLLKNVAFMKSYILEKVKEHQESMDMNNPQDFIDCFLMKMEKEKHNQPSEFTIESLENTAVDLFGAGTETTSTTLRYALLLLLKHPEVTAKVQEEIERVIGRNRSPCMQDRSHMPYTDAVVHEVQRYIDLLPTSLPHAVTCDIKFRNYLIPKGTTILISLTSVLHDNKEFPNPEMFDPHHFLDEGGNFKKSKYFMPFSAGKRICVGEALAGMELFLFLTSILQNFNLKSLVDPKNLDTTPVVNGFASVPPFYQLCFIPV

Liver microsome [3] = assay: Drug metabolism in human liver microsomes assessed as metabolite M12 (2-amino-2-(4-(8-hydroxyoctyl)phenethyl)propane-1,3-diol) formation at 20 uM after 30 mins by HPLC-RA analysis in presence of NADPH; format: ADME; conditions: 0.5 h
Liver microsome [4] = assay: Drug metabolism in human liver microsomes assessed as total metabolite formation at 1 uM after 20 mins by HPLC-RA analysis in presence of 10 uM CYP3A4 inhibitor ketoconazole; format: ADME
Cytochrome P450 4F2 = biological target: T2, Cytochrome P450 4F2 (Homo sapiens, UniProt P78329); assay: Activity at human recombinant CYP4F2 expressed in baculovirus-infected BTI-TN-5B1-4 insect cell microsomes at 10 uM by HPLC-RA analysis in presence of CYP4F2 and CYP4F12 inhibitor ketoconazole; format: ADME; conditions: bti-tn-5b1-4, 10 µM
T2 sequence (P78329 whole entry): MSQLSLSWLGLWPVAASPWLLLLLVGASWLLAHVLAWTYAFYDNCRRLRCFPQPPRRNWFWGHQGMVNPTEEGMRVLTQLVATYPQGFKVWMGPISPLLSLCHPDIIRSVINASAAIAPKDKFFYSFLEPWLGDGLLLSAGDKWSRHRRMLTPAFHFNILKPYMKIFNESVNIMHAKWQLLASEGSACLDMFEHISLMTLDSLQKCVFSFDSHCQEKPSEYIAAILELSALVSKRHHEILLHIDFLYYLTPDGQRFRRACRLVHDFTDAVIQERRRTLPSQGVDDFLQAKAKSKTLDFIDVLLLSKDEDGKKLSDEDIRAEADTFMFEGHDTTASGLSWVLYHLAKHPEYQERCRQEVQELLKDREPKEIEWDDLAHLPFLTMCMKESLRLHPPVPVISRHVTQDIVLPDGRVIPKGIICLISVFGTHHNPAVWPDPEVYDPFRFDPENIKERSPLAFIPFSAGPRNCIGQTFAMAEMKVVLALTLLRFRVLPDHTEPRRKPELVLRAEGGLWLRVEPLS

Cytochrome P450 2C9 [5] = biological target: T1, Cytochrome P450 2C9; assay: Activity at CYP2C9 in human liver microsomes isolated from donors assessed as metabolite formation after 24 mins by HPLC-RA analysis; format: ADME; conditions: 0.4 h
Liver microsome [6] = assay: Drug metabolism in human liver microsomes assessed as total metabolite formation at 1 to 50 uM after 20 mins by HPLC-RA analysis in presence of mechanism-based CYP2E1 inhibitor DETC and NADPH; format: ADME
[7] = Drug metabolism in human liver cytosol assessed as metabolite formation by HPLC-RA analysis; format: ADME, tissue-based
Cytochrome P450 2E1 [8] = biological target: T3, Cytochrome P450 2E1 (Homo sapiens, UniProt P05181); assay: Activity at human recombinant CYP2E1 expressed in baculovirus-infected BTI-TN-5B1-4 insect cell microsomes assessed as metabolite formation at 5 to 100 uM after 30 mins by HPLC-RA analysis; format: ADME; conditions: bti-tn-5b1-4, 0.5 h
T3 sequence (P05181 whole entry): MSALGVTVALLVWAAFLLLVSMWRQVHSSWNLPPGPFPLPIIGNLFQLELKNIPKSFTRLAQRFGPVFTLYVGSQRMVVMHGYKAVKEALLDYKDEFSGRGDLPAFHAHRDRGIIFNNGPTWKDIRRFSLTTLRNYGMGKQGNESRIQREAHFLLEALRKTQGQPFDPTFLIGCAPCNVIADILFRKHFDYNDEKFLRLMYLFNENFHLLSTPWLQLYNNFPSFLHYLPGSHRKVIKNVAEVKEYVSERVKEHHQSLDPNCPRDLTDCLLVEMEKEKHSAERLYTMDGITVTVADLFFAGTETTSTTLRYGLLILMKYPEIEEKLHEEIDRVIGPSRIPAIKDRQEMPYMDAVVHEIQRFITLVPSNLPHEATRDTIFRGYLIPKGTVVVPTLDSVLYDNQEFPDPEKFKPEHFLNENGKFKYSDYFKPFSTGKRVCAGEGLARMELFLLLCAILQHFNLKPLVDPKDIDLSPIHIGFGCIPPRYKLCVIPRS

Cytochrome P450 2D6 = Cytochrome P450 2D6 (Homo sapiens, UniProt P10635); assay: Activity at CYP2D6 in human liver microsomes isolated from donors assessed as metabolite formation after 24 mins by HPLC-RA analysis; format: ADME; conditions: 0.4 h
Chain of Cytochrome P450 2D6 (P10635 whole entry): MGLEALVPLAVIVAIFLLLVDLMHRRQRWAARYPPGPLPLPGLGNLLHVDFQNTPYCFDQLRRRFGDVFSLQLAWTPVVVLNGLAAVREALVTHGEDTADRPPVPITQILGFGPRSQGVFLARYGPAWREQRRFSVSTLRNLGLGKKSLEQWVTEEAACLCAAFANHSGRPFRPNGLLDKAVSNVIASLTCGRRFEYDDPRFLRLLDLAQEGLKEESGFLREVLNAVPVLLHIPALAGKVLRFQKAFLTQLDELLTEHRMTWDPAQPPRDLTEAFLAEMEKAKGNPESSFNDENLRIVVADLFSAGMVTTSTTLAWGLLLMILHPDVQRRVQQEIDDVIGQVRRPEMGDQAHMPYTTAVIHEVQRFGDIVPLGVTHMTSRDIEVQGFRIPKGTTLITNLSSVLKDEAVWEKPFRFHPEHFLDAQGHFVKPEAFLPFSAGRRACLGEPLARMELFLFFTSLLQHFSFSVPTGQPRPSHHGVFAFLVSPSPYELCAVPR

[9] = Retention time of the compound by C18 advantage armor column based LC-MS analysis; format: physicochemical
Cytochrome P450 3A4 = Cytochrome P450 3A4 (Homo sapiens, UniProt P08684); assay: Activity at human recombinant CYP3A4 expressed in baculovirus-infected BTI-TN-5B1-4 insect cell microsomes assessed as metabolite formation at 5 to 100 uM after 30 mins by HPLC-RA analysis; format: ADME; conditions: bti-tn-5b1-4, 0.5 h
Chain of Cytochrome P450 3A4 (P08684 whole entry): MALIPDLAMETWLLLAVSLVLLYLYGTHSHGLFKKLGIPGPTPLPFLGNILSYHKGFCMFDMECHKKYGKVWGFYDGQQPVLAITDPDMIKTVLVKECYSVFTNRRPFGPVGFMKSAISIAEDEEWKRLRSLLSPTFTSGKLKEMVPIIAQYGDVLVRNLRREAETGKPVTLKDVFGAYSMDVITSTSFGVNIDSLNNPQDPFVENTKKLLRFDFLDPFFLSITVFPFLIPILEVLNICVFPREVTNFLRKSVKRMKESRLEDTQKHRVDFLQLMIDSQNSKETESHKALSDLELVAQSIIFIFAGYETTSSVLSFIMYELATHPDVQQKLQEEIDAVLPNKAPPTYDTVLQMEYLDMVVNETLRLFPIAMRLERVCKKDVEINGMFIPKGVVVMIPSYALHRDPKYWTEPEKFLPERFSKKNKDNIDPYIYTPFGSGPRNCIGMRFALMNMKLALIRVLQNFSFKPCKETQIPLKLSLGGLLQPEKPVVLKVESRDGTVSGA

Cytochrome P450 4F12 = Cytochrome P450 4F12 (Homo sapiens, UniProt Q9HCS2); assay: Activity at human recombinant CYP4F12 expressed in baculovirus-infected BTI-TN-5B1-4 insect cell microsomes at 10 uM by HPLC-RA analysis in presence of CYP4F2 and CYP4F12 inhibitor ketoconazole; format: ADME; conditions: bti-tn-5b1-4, 10 µM
Chain of Cytochrome P450 4F12 (Q9HCS2 whole entry): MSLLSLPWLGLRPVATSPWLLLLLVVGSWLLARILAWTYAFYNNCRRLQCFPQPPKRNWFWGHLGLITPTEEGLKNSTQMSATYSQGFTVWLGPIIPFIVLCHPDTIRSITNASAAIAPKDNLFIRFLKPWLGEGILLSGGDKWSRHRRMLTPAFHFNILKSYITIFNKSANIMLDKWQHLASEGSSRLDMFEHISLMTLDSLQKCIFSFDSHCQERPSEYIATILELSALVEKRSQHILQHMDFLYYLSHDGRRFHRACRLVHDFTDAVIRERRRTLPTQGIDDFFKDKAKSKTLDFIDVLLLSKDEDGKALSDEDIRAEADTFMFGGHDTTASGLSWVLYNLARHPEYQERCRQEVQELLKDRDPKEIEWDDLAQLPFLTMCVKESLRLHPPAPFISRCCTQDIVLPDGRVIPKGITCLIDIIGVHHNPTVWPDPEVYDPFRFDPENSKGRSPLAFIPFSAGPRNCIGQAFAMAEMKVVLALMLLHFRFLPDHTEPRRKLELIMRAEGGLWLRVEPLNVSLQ

Liver microsome [10] = assay: Drug metabolism in human liver microsomes assessed as total metabolite formation at 1 to 50 uM after 20 mins by HPLC-RA analysis in presence of CYP3A4 inhibitor ketoconazole; format: ADME
Liver microsome [11] = assay: Drug metabolism in human liver microsomes assessed as total metabolite formation at 1 to 50 uM after 20 mins by HPLC-RA analysis in presence of irreversible CYP3A inhibitor azamulin; format: ADME
Cytochrome P450 1A1 = Cytochrome P450 1A1 (Homo sapiens, UniProt P04798); assay: Activity at human recombinant CYP1A1 expressed in baculovirus-infected BTI-TN-5B1-4 insect cell microsomes assessed as metabolite formation at 5 to 100 uM after 30 mins by HPLC-RA analysis; format: ADME; conditions: bti-tn-5b1-4, 0.5 h
Cytochrome P450 2E1 [12] = biological target: T3, Cytochrome P450 2E1; assay: Activity at CYP2E1 in human liver microsomes isolated from donors assessed as metabolite formation after 24 mins by HPLC-RA analysis; format: ADME; conditions: 0.4 h
Cytochrome P450 2B6 = Cytochrome P450 2B6 (Homo sapiens, UniProt P20813); assay: Activity at human recombinant CYP2B6 expressed in baculovirus-infected BTI-TN-5B1-4 insect cell microsomes assessed as metabolite formation at 5 to 100 uM after 30 mins by HPLC-RA analysis; format: ADME; conditions: bti-tn-5b1-4, 0.5 h
Chain of Cytochrome P450 2B6 (P20813 whole entry): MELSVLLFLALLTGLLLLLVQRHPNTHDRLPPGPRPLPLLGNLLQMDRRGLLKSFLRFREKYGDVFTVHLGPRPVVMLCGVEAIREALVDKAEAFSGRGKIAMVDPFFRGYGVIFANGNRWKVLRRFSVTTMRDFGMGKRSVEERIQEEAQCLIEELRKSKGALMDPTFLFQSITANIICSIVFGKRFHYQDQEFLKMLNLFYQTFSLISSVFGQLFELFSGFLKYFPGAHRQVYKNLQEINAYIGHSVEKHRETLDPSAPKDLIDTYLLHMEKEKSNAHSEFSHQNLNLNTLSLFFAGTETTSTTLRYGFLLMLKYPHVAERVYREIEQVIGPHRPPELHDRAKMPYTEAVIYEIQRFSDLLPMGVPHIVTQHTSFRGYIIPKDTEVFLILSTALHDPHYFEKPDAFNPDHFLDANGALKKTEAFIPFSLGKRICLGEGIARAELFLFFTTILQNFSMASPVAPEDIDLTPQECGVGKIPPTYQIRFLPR

[13] = Retention time of the compound by symmetry C18 column based LC-MS analysis; format: physicochemical
Cytochrome P450 1A2 = Cytochrome P450 1A2 (Homo sapiens, UniProt P05177); assay: Activity at CYP1A2 in human liver microsomes isolated from donors assessed as metabolite formation after 24 mins by HPLC-RA analysis; format: ADME; conditions: 0.4 h
Chain of Cytochrome P450 1A2 (P05177 whole entry): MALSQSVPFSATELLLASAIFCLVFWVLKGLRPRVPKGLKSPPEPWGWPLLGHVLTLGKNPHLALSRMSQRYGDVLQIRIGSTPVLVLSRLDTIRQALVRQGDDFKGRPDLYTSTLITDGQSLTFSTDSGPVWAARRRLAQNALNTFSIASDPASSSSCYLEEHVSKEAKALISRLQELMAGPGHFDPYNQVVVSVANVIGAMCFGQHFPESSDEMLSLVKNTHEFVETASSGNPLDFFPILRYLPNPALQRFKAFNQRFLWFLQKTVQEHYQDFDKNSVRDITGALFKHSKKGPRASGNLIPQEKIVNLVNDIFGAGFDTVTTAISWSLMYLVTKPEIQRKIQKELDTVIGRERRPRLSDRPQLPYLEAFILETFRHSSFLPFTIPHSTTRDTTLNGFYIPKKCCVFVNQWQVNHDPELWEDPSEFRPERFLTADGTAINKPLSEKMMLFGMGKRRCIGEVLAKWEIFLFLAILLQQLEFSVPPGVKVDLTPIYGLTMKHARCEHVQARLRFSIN

Cytochrome P450 3A5 = Cytochrome P450 3A5 (Homo sapiens, UniProt P20815); assay: Activity at CYP3A5 in human liver microsomes isolated from donors assessed as metabolite formation after 24 mins by HPLC-RA analysis; format: ADME; conditions: 0.4 h
Chain of Cytochrome P450 3A5 (P20815 whole entry): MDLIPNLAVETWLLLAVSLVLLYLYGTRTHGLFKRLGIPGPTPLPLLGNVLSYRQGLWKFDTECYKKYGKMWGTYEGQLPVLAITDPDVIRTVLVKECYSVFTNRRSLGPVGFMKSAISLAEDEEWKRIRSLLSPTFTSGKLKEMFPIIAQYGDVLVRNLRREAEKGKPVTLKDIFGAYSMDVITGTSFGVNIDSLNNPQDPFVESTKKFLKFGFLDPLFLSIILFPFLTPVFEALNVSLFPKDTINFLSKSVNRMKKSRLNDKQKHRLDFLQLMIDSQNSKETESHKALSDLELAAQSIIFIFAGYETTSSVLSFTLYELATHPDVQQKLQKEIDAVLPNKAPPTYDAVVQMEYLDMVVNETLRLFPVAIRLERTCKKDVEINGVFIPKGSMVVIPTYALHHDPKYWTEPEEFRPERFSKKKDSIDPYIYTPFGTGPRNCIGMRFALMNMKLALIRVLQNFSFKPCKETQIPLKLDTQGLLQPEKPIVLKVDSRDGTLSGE

Liver microsome [14] = assay: Drug metabolism in human liver microsomes assessed as total metabolite formation at 1 to 50 uM after 20 mins by HPLC-RA analysis in presence of CYP2C9 inhibitor sulfaphenazole; format: ADME
[15] = Activity at CYP4A in human liver microsomes assessed as metabolite formation after 24 hrs by HPLC-RA analysis; format: ADME

Chain of Cytochrome P450 2C19 (P33261 whole entry): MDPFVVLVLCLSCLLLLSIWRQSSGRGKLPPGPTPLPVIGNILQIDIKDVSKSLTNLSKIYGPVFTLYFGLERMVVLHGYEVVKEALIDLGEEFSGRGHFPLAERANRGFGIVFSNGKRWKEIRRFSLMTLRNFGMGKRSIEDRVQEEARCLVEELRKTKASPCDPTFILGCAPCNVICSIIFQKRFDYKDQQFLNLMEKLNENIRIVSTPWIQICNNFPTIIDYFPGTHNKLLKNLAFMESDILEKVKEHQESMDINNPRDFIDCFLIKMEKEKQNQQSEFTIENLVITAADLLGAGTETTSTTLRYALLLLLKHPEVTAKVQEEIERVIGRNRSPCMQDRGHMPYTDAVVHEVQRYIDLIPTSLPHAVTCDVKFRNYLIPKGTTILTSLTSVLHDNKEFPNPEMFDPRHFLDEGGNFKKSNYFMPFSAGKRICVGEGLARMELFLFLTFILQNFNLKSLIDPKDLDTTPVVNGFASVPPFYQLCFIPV

CCCCCCCCc1ccc(CC[14C](N)(CO)CO)cc1.Cl
Drug metabolism (Cytochrome P450 2C19): metabolite_not_detected
Vmax [1]: 847 pmol/min
Drug metabolism (Cytochrome P450 3A7): metabolite_not_detected
Drug metabolism (Cytochrome P450 2C8): metabolite_not_detected
Drug metabolism (Cytochrome P450 2C9 [2]): metabolite_not_detected
Drug metabolism (Liver microsome [3]): metabolite_detected
Drug metabolism (Liver microsome [4]): metabolite_not_detected
Drug metabolism (Cytochrome P450 4F2): metabolite_not_detected
Drug metabolism (Cytochrome P450 2C9 [5]): metabolite_not_detected
Drug metabolism (Liver microsome [6]): metabolite_detected
Drug metabolism [7]: metabolite_not_detected
Drug metabolism (Cytochrome P450 2E1 [8]): metabolite_detected
Drug metabolism (Cytochrome P450 2D6): metabolite_not_detected
Retention_time [9]: 42.7 min
Drug metabolism (Cytochrome P450 3A4): metabolite_detected
Drug metabolism (Cytochrome P450 4F12): metabolite_not_detected
Drug metabolism (Liver microsome [10]): metabolite_not_detected
Drug metabolism (Liver microsome [11]): metabolite_not_detected
Drug metabolism (Cytochrome P450 1A1): metabolite_not_detected
Drug metabolism (Cytochrome P450 2E1 [12]): metabolite_not_detected
Drug metabolism (Cytochrome P450 2B6): metabolite_not_detected
Retention_time [13]: 42.4 min
Drug metabolism (Cytochrome P450 1A2): metabolite_not_detected
Drug metabolism (Cytochrome P450 3A5): metabolite_not_detected
Drug metabolism (Liver microsome [14]): metabolite_detected
Drug metabolism [15]: metabolite_not_detected
